The inhibition is the drop in the measured response relative to a control, in per cent.

wild-type human cardiac sodium channel, hNav1.5, sequence (Q14524 whole entry): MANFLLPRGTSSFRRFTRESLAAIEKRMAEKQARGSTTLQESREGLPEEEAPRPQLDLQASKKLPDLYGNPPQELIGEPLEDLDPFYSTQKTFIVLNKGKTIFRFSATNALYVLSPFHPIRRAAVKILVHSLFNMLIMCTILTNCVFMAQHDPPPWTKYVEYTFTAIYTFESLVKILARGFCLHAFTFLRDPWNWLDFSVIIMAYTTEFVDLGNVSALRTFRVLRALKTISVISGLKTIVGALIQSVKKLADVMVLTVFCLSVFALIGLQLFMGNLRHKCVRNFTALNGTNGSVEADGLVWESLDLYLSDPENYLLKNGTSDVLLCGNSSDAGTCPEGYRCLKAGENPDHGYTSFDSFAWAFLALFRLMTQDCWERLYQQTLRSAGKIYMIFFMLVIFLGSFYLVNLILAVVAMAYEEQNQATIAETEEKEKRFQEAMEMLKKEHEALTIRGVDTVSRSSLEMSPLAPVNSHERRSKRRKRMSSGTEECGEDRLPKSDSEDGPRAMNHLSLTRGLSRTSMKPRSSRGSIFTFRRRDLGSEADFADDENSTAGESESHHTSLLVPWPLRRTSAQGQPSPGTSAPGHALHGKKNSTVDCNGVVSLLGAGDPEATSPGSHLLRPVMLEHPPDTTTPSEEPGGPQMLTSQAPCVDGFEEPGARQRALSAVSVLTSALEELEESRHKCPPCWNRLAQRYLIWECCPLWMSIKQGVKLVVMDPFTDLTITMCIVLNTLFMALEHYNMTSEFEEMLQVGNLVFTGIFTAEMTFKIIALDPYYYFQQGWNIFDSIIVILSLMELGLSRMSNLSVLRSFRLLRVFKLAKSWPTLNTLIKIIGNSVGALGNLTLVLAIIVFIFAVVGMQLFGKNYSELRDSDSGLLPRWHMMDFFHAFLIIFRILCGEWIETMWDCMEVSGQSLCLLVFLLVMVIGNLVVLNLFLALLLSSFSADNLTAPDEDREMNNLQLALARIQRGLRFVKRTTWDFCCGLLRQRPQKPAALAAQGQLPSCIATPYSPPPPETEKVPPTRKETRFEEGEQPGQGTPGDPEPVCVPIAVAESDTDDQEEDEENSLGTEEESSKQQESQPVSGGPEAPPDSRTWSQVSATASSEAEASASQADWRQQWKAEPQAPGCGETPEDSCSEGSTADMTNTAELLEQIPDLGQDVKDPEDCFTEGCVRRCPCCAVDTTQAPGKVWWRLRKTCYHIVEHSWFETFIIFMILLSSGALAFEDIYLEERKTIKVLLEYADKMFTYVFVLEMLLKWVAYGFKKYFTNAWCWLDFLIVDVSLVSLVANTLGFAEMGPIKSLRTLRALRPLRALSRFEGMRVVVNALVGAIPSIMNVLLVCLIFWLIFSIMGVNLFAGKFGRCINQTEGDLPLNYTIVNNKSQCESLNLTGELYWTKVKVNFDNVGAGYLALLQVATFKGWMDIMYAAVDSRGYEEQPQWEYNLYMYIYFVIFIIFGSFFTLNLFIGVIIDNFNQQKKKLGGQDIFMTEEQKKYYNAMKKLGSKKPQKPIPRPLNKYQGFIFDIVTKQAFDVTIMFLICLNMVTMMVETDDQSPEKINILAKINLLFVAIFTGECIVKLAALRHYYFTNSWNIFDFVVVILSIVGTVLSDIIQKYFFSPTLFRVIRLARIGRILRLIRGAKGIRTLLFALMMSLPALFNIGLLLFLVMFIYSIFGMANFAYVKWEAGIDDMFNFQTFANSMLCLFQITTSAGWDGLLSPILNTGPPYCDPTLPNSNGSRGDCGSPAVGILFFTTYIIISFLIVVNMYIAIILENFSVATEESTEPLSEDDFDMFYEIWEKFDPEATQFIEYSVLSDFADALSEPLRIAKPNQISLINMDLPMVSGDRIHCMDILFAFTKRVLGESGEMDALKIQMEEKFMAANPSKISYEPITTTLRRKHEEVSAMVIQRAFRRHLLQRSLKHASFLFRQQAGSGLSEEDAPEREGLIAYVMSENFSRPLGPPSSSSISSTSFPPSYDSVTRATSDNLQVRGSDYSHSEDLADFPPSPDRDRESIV

The assay concerns the target wild-type human cardiac sodium channel, hNav1.5 (Homo sapiens, UniProt Q14524). Briefly: Late INa screening assay (QPatch whole cell patch clamp, tefluthrin-enhanced late sodium current). In kind it is cell-based. Particulars: HEK293 hNav1.5, late INa activated with 10 μM Tefluthrin. The procedure: The late sodium current (Late INa) and peak sodium current (Peak INa) assays are performed on an automated electrophysiology platform, QPatch 16X (Sophion Bioscience, Copenhagen, Denmark), which uses the whole cell patch clamp technique to measure currents through the cell membrane of up to 16 cells at a time. The assay uses an HEK293 (human embryonic kidney) cell line heterologously expressing the wild-type human cardiac sodium channel, hNav1.5, purchased from Millipore (Billerica, Mass.). No beta subunits were coexpressed with the Na channel alpha subunit. Cells are maintained with standard tissue culture procedures and stable channel expression is maintained with 400 μg/mL Geneticin in the culture medium. Cells isolated for use on QPatch are incubated for 5 minutes in Detachin 1X (Genlantis, San Diego, USA) at 37° C. to ensure that 80-90% of the cells are single and not part of a cell cluster. Experiments are carried out at 23-25° C.
For both the Late INa and Peak INa assays, series resistance compensation is set to 100% and series resistance and whole-cell compensation are performed automatically. Currents are digitized at 25 kHz and low-pass filtered at 12 kHz and 10 kHz for the late and peak INa assays, respectively. Currents through open sodium channels are automatically recorded and stored in the Sophion Bioscience Oracle database (Sophion Bioscience, Copenhagen, Denmark). Analysis is performed using QPatch Assay and database software and data are compiled in Excel.
Compound stocks are routinely made by the Gilead Sample Bank in plastic vials to 10 mM in dimethyl sulfoxide (DMSO). In some cases, when compounds are not soluble in DMSO, they are made in 100% ethanol. Stocks are sonicated as necessary. The extracellular solution for screening Late INa is composed of: 140 mM NaCl, 4 mM KCl, 1.8 mM CaCl2, 0.75 mM MgCl2 and 5 mM HEPES with pH adjusted to 7.4 using NaOH. The intracellular solution used to perfuse the inside of the cells for both the Late INa and Peak INa assays contains: 120 mM CsF, 20 mM CsCl, 5 mM EGTA, 5 mM HEPES and pH adjusted to 7.4 with CsOH. Compounds are diluted in extracellular solution to 1 μM in glass vials and then transferred to glass well plates before robotic addition to the cells. A 0 mM Na extracellular solution (0 Na-ECF) is used at the end of each experiment for the Late INa and Peak INa assays to measure baseline current contains: 140 mM N-methyl-D-glucamine; 4 mM KCl; 1.8 mM CaCl2; 0.75 mM MgCl2; 5 mM HEPES and pH was adjusted to 7.4 with HCl.
For the hNav1.5 Late INa assay, sodium channels are activated every 10 seconds (0.1 Hz) by depolarizing the cell membrane to −20 mV for 250 milliseconds (ms) from a holding potential of −120 mV. In response to a −20 mV voltage step, typical hNav1.5 sodium currents activate rapidly to a peak negative current and then inactivate nearly completely within 3-4 ms.
Compounds were tested to determine their activity in blocking the late sodium current. Late INa was generated by adding 10 μM Tefluthrin (pyrethroid) to the extracellular solution while recording Na currents. To confirm the block of late INa observed using the automated screening method, a second late INa enhancer (ATX-II) and the manual patch clamp method were used. ATX-II and tefluthrin occupy distinct, non-overlapping binding sites and modify Na^+ channel function differently to increase late INa. Compounds tested have been found generally to inhibit the enhanced late INa caused by either late INa enhancer. For the purposes of the screening, late INa is defined as the mean current between 225 ms and 250 ms after stepping to −20 mV to activate Na channels. After establishing the whole cell recording configuration, late INa activator is added to each well 4 times over a 16-17 minute period so that the late component of the Na current reaches a stable value. Compounds were then added (typically at 1 μM), in the presence of the late INa activator, with 3 additions over the course of 7 or 8 minutes. […]
With `O=C(c1ncccn1)N1CCC(NC2=NCCOc3ccc(-c4ccc(C(F)(F)F)cc4)cc32)C1` (stereo not drawn) [II-35, pyrimidin-2-yl(3-(7-(4-(trifluoromethyl)phenyl)-2,3-dihydrobenzo[f][1,4]oxazepin-5-ylamino)pyrrolidin-1-yl)methanone], the inhibition at 1 µM turned out to be 4%. Consider `FC(F)(F)c1ccc(-c2ccc3c(c2)C(N2CCC(N4CCCC4)C2)=NCCO3)cc1` (stereo not drawn) [II-36, 5-(1,3′-bipyrrolidin-1′-yl)-7-(4-(trifluoromethyl)phenyl)-2,3-dihydrobenzo[f][1,4]oxazepine], for which the inhibition at 1 µM came to 7%. For `FC(F)(F)c1ccc(-c2ccc3c(c2)C(N2CCC(NCc4ncccn4)C2)=NCCO3)cc1` (stereo not drawn) [II-37, N-(pyrimidin-2-ylmethyl)-1-(7-(4-(trifluoromethyl)phenyl)-2,3-dihydrobenzo[f][1,4]oxazepin-5-yl)pyrrolidin-3-amine], the inhibition at 1 µM came to 20%. For `CN(C(=O)OC(C)(C)C)[C@@H]1CCN(C2=NCCOc3ccc(-c4ccc(C(F)(F)F)cc4)cc32)C1` [II-38, (R)-tert-butyl methyl(1-(7-(4-(trifluoromethyl)phenyl)-2,3-dihydrobenzo[f][1,4]oxazepin-5-yl)pyrrolidin-3-yl)carbamate], the inhibition at 1 µM came to 18%. As for `CN[C@@H]1CCN(C2=NCCOc3ccc(-c4ccc(C(F)(F)F)cc4)cc32)C1` [II-39, (R)—N-methyl-1-(7-(4-(trifluoromethyl)phenyl)-2,3-dihydrobenzo[f][1,4]oxazepin-5-yl)pyrrolidin-3-amine], the inhibition at 1 µM is 26%. As to `CN(C(=O)OC(C)(C)C)[C@H]1CCN(C2=NCCOc3ccc(-c4ccc(C(F)(F)F)cc4)cc32)C1` [II-40, (S)-tert-butyl methyl(1-(7-(4-(trifluoromethyl)phenyl)-2,3-dihydrobenzo[f][1,4]oxazepin-5-yl)pyrrolidin-3-yl)carbamate], the inhibition at 1 µM is 18%. For the molecule `N[C@@H]1CCN(C2=NCCOc3ccc(-c4ccc(C(F)(F)F)cc4)cc32)C1` [II-41, (R)-1-(7-(4-(trifluoromethyl)phenyl)-2,3-dihydrobenzo[f][1,4]oxazepin-5-yl)pyrrolidin-3-amine], the inhibition at 1 µM is 6%. For the molecule `O=C1CCCN1C1CCN(C2=NCCOc3ccc(-c4ccc(C(F)(F)F)cc4)cc32)CC1` [II-42, 1-(1-(7-(4-(trifluoromethyl)phenyl)-2,3-dihydrobenzo[f][1,4]oxazepin-5-yl)piperidin-4-yl)pyrrolidin-2-one], the inhibition at 1 µM worked out at 9%.

For `CN[C@H]1CCN(C2=NCCOc3ccc(-c4ccc(C(F)(F)F)cc4)cc32)C1` [II-44, (S)—N-methyl-1-(7-(4-(trifluoromethyl)phenyl)-2,3-dihydrobenzo[f][1,4]oxazepin-5-yl)pyrrolidin-3-amine], the inhibition at 1 µM is 9%. For the molecule `O=C(N[C@H]1CCN(C2=NCCOc3ccc(-c4ccc(C(F)(F)F)cc4)cc32)C1)c1ncccn1` [II-45, (S)—N-(1-(7-(4-(trifluoromethyl)phenyl)-2,3-dihydrobenzo[f][1,4]oxazepin-5-yl)pyrrolidin-3-yl)pyrimidine-2-carboxamide], the inhibition at 1 µM was found to be 6%. Regarding `O=C(N[C@@H]1CCN(C2=NCCOc3ccc(-c4ccc(C(F)(F)F)cc4)cc32)C1)c1ncccn1` [II-46, (R)—N-(1-(7-(4-(trifluoromethyl)phenyl)-2,3-dihydrobenzo[f][1,4]oxazepin-5-yl)pyrrolidin-3-yl)pyrimidine-2-carboxamide], the inhibition at 1 µM was determined as 4%. Under `O=C(N[C@@H]1CCN(C2=NCCOc3ccc(-c4ccc(C(F)(F)F)cc4)cc32)C1)c1ccccn1` [II-47, (R)—N-(1-(7-(4-(trifluoromethyl)phenyl)-2,3-dihydrobenzo[f][1,4]oxazepin-5-yl)pyrrolidin-3-yl)picolinamide] stands 18%; under `CCN(CC)[C@H]1CCN(C2=NCCOc3ccc(-c4ccc(C(F)(F)F)cc4)cc32)C1` [II-48, (S)—N,N-diethyl-1-(7-(4-(trifluoromethyl)phenyl)-2,3-dihydrobenzo[f][1,4]oxazepin-5-yl)pyrrolidin-3-amine], 24%; under `CCN(CC)[C@@H]1CCN(C2=NCCOc3ccc(-c4ccc(C(F)(F)F)cc4)cc32)C1` [II-49, (R)—N,N-diethyl-1-(7-(4-(trifluoromethyl)phenyl)-2,3-dihydrobenzo[f][1,4]oxazepin-5-yl)pyrrolidin-3-amine], 11%. Turning to `CC(C)(C)OC(=O)N[C@@H]1CCN(C2=NCCOc3ccc(-c4ccc(C(F)(F)F)cc4)cc32)C1` [II-50, (R)-tert-butyl 1-(7-(4-(trifluoromethyl)phenyl)-2,3-dihydrobenzo[f][1,4]oxazepin-5-yl)pyrrolidin-3-ylcarbamate], the inhibition at 1 µM was determined as 22%. Regarding `CN(C)[C@@H]1CCN(C2=NCCOc3ccc(-c4ccc(C(F)(F)F)cc4)cc32)C1` [II-51, (R)—N,N-dimethyl-1-(7-(4-(trifluoromethyl)phenyl)-2,3-dihydrobenzo[f][1,4]oxazepin-5-yl)pyrrolidin-3-amine], the inhibition at 1 µM turned out to be 21%. For `CN1CCN(C2=NCCOc3ccc(-c4ccc(C(F)(F)F)cc4)cc32)CC1` [II-52, 5-(4-methylpiperazin-1-yl)-7-(4-(trifluoromethyl)phenyl)-2,3-dihydrobenzo[f][1,4]oxazepine], the inhibition at 1 µM was found to be 10%. `C[C@H]1CN(C(=O)OC(C)(C)C)CCN1C1=NCCOc2ccc(-c3ccc(C(F)(F)F)cc3)cc21` [II-53, (S)-tert-butyl 3-methyl-4-(7-(4-(trifluoromethyl)phenyl)-2,3-dihydrobenzo[f][1,4]oxazepin-5-yl)piperazine-1-carboxylate]: the inhibition at 1 µM was found to be 2%. Consider `FC(F)(F)c1ccc(-c2ccc3c(c2)C(N2CCC(N4CCOCC4)C2)=NCCO3)cc1` (stereo not drawn) [II-55, 5-(3-morpholinopyrrolidin-1-yl)-7-(4-(trifluoromethyl)phenyl)-2,3-dihydrobenzo[f][1,4]oxazepine], for which the inhibition at 1 µM stood at 18%. Under `N[C@H]1CCN(C2=NCCOc3ccc(-c4ccc(C(F)(F)F)cc4)cc32)C1` [II-56, (S)-1-(7-(4-(trifluoromethyl)phenyl)-2,3-dihydrobenzo[f][1,4]oxazepin-5-yl)pyrrolidin-3-amine] stands 17%; under `CC(C)(C)OC(=O)NC1CCN(C2=NCCOc3ccc(-c4ccc(C(F)(F)F)cc4)cc32)C1` (stereo not drawn) [II-57, tert-butyl 1-(7-(4-(trifluoromethyl)phenyl)-2,3-dihydrobenzo[f][1,4]oxazepin-5-yl)pyrrolidin-3-ylcarbamate], 23%. Under `FC(F)(F)c1ccc(-c2ccc3c(c2)C(N2CCCC2c2ccccn2)=NCCO3)cc1` (stereo not drawn) [II-58, 5-(2-(pyridin-2-yl)pyrrolidin-1-yl)-7-(4-(trifluoromethyl)phenyl)-2,3-dihydrobenzo[f][1,4]oxazepine] stands 18%; under `FC(F)(F)c1ccc(-c2ccc3c(c2)C(NC2CCNC2)=NCCO3)cc1` (stereo not drawn) [II-59, N-(pyrrolidin-3-yl)-7-(4-(trifluoromethyl)phenyl)-2,3-dihydrobenzo[f][1,4]oxazepin-5-amine], 8%.

With `OC(CN[C@@H]1CCN(C2=NCCOc3ccc(-c4ccc(C(F)(F)F)cc4)cc32)C1)COc1cccc2ccccc12` (stereo partly drawn) [II-61, 1-(naphthalen-1-yloxy)-3-((R)-1-(7-(4-(trifluoromethyl)phenyl)-2,3-dihydrobenzo[f][1,4]oxazepin-5-yl)pyrrolidin-3-ylamino)propan-2-ol], the inhibition at 1 µM came to 12%.

These data come from US9695192B2, “Fused heterocyclic compounds as ion channel modulators” (GILEAD SCIENCES, INC., priority 2011, dated 2017).
